Experiments:
Experiment in all cases: relative viability (nuclei count vs DMSO), 5 days (fraction); higher = more cells survive
XMD14-99 + Decitabine = compound: CN1CCN(CC1)C2=CC(=C(C=C2)NC3=NC(=C(S3)C(=O)C4=C(C=CC=C4Cl)Cl)N)OC [XMD14-99] + Nc1ncn([C@H]2C[C@H](O)[C@@H](CO)O2)c(=O)n1 [Decitabine] (partner 2 µM)
Outline: (§1)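 One day after seeding in 1536-well plates, lung cancer cell lines were dosed by pin tool. Dosing was either single-drug or a fixed anchor-drug dose plus five library-drug doses (not always all listed) in √10 steps. After 5 days, nuclei were stained in one fix-and-stain step and counted on 4× images, and relative viability is the nuclei count of treated wells over that of vehicle wells, given as the median of duplicate plates.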

AZD1208 + Luminespib = compound: N[C@@H]1CCCN(c2c(/C=C3\SC(=O)NC3=O)cccc2-c2ccccc2)C1 [AZD1208] + CCNC(=O)c1noc(-c2cc(C(C)C)c(O)cc2O)c1-c1ccc(CN2CCOCC2)cc1 [Luminespib] (partner 0.01 µM)
Outline: as §1

XMD14-99 + Bortezomib = compound: CN1CCN(CC1)C2=CC(=C(C=C2)NC3=NC(=C(S3)C(=O)C4=C(C=CC=C4Cl)Cl)N)OC [XMD14-99] + CC(C)C[C@H](NC(=O)[C@H](Cc1ccccc1)NC(=O)c1cnccn1)B(O)O [Bortezomib] (partner 0.002 µM)
Outline: as §1

AZD1208 + Dasatinib = compound: N[C@@H]1CCCN(c2c(/C=C3\SC(=O)NC3=O)cccc2-c2ccccc2)C1 [AZD1208] + Cc1nc(Nc2ncc(C(=O)Nc3c(C)cccc3Cl)s2)cc(N2CCN(CCO)CC2)n1 [Dasatinib] (partner 0.075 µM)
Outline: as §1

Cell Line	relative viability (XMD14-99 + Decitabine; first compound 0.08 µM)	relative viability (XMD14-99 + Decitabine; first compound 0.8 µM)	relative viability (XMD14-99 + Decitabine; first compound 2.53 µM)	relative viability (XMD14-99 + Decitabine; first compound 8 µM)	relative viability (AZD1208 + Luminespib; first compound 0.08 µM)	relative viability (AZD1208 + Luminespib; first compound 0.253 µM)	relative viability (AZD1208 + Luminespib; first compound 2.53 µM)	relative viability (AZD1208 + Luminespib; first compound 8 µM)	relative viability (XMD14-99 + Bortezomib; first compound 0.08 µM)	relative viability (XMD14-99 + Bortezomib; first compound 0.8 µM)	relative viability (XMD14-99 + Bortezomib; first compound 2.53 µM)	relative viability (XMD14-99 + Bortezomib; first compound 8 µM)	relative viability (AZD1208 + Dasatinib; first compound 0.08 µM)	relative viability (AZD1208 + Dasatinib; first compound 0.253 µM)	relative viability (AZD1208 + Dasatinib; first compound 0.8 µM)	relative viability (AZD1208 + Dasatinib; first compound 2.53 µM)	relative viability (AZD1208 + Dasatinib; first compound 8 µM)	relative viability (AZD1208 + Luminespib; first compound 0.8 µM)
NCI-H23	0.288	0.262	0.338	0.309	0.238	0.218	0.202	0.24	0.95	0.908	1.12	0.728	0.641	0.887	0.668	0.714	0.614	–
NCI-H322M	0.684	0.667	0.706	0.645	0.784	0.767	0.803	0.88	1.12	1.33	1.44	1.24	0.261	0.235	0.23	0.224	0.228	0.794
NCI-H441	0.279	0.242	0.308	0.234	0.393	0.331	0.342	0.265	0.562	0.653	0.473	0.587	0.593	0.486	0.425	0.55	0.437	0.26
NCI-H460	0.461	0.486	0.495	0.385	0.0309	0.0217	0.0375	0.0205	1.06	1.15	0.983	0.784	0.54	0.562	0.473	0.365	0.334	0.0281
NCI-H520	0.465	0.468	0.483	0.44	0.253	0.246	0.201	0.207	0.622	0.604	0.425	0.279	0.151	0.196	0.173	0.154	0.178	0.212
NCI-H596	1.03	0.943	0.858	0.964	0.912	1.19	1.05	0.79	0.962	1.07	1.07	0.797	0.545	0.586	0.524	0.524	0.462	0.999
NCI-H647	0.378	0.41	0.475	0.364	0.266	0.16	0.154	0.146	0.914	1.04	0.928	0.745	0.119	0.226	0.106	0.132	0.169	0.294
NCI-H650	0.272	0.318	0.292	0.319	0.865	0.768	0.757	0.819	0.97	0.847	0.724	0.649	0.509	0.451	0.385	0.379	0.338	0.789
NCI-H661	0.562	0.55	0.502	0.44	0.977	1.02	0.939	0.998	0.708	0.669	0.793	0.674	0.95	0.98	0.864	0.777	0.902	0.955
NCI-H727	0.881	0.805	0.857	0.599	0.362	0.384	0.42	0.458	0.895	0.827	0.625	0.575	0.315	0.322	0.315	0.313	0.314	0.431
NCI-H838	0.477	0.452	0.426	0.436	0.294	0.211	0.327	0.22	0.826	0.828	0.674	0.491	0.329	0.365	0.272	0.311	0.274	0.252
NCI-H1355	0.381	0.339	0.343	0.346	0.708	0.598	0.699	0.525	1.31	1.2	1.15	0.898	0.732	0.55	0.628	0.641	0.48	0.611
NCI-H1437	0.621	0.469	0.458	0.417	1.13	1.17	1.24	1.22	0.519	0.408	0.323	0.287	0.495	0.297	0.337	0.296	0.337	1.2
NCI-H1650	0.393	0.418	0.41	0.338	0.208	0.151	0.211	0.204	0.248	0.221	0.187	0.168	0.267	0.311	0.255	0.261	0.296	0.188
NCI-H1651	0.683	0.546	0.601	0.509	0.902	0.977	0.795	0.568	0.964	0.938	0.981	0.811	0.406	0.461	0.38	0.319	0.307	0.848
NCI-H1666	0.81	0.628	0.686	0.567	0.977	1.07	1	1.01	0.872	0.782	0.825	0.629	0.843	0.829	0.828	0.763	0.834	0.911
NCI-H1734	0.505	0.494	0.477	0.477	0.18	0.197	0.159	0.168	0.873	0.847	0.822	0.707	0.41	0.435	0.426	0.393	0.307	0.187
NCI-H1755	0.761	0.68	0.698	0.709	0.357	0.282	0.565	0.269	0.854	0.947	0.859	0.795	0.422	0.407	0.345	0.339	0.209	0.494
NCI-H1792	0.497	0.499	0.549	0.326	0.407	0.437	0.394	0.284	0.982	0.888	0.849	0.66	0.722	0.595	0.647	0.675	0.55	0.358
NCI-H1915	0.25	0.255	0.263	0.259	0.768	0.811	0.677	0.678	1.03	0.97	0.872	0.904	0.305	0.298	0.296	0.294	0.239	0.709
NCI-H1975	0.495	0.412	0.449	0.317	0.235	0.296	0.228	0.18	0.388	0.359	0.347	0.272	0.388	0.363	0.36	0.361	0.381	0.2
NCI-H1993	0.561	0.603	0.587	0.622	0.522	0.561	0.566	0.523	1.14	0.956	0.92	0.864	0.507	0.519	0.54	0.536	0.459	0.692
NCI-H2009	0.342	0.343	0.378	0.371	1.1	1.04	1.09	1.05	1.05	0.968	0.919	0.682	0.257	0.267	0.279	0.249	0.304	1.06
NCI-H2023	0.222	0.212	0.228	0.166	0.677	0.75	0.597	0.416	0.931	0.945	0.83	0.645	0.506	0.614	0.457	0.472	0.493	0.588
NCI-H2085	0.561	0.529	0.523	0.45	0.439	0.388	0.461	0.381	1.13	1.03	0.954	0.745	0.27	0.217	0.306	0.218	0.262	0.427
NCI-H2087	0.282	0.264	0.234	0.192	0.166	0.145	0.141	0.171	0.85	0.705	0.709	0.45	0.763	0.824	0.641	0.573	0.715	0.14
NCI-H2126	0.629	0.537	0.611	0.503	0.9	0.924	0.799	0.858	1.16	1.08	1.08	0.946	0.554	0.453	0.475	0.436	0.394	0.848
NCI-H2347	0.584	0.623	0.577	0.522	0.416	0.625	0.371	0.306	1.22	0.691	0.981	0.553	0.306	0.339	0.339	0.321	0.257	0.415
NCI-H2405	0.704	0.749	0.628	0.648	0.652	0.464	0.455	0.517	1.06	0.99	0.9	0.874	0.205	0.198	0.202	0.21	0.184	0.47
